Data set [1] concerns rats. The experiment in a line: Self-administration model. The format is in vivo, male Sprague-Dawley rats. The conditions noted are these: n=8.
For data set [2] the following is noted: no reference given, cited from earlier work.
The conditions of data set [3]: no reference given, cited from earlier work. This is another data set of the same source.
For data set [4] the following is noted: no reference given; cited from earlier work.
Data set [5] relates to rats. The conditions noted are these: positive control; ref Carlezon et al., 2006; Curzon et al., 2009; cited from earlier work.
For data set [6], the system named is rats. The experiment in a line: Acetic acid-induced writhing model. The format is in vivo, male Sprague-Dawley rats. Particulars: test compound 20 mg/kg p.o.; morphine 10 mg/kg i.p.; Student's t-test, P<0.05. On the technique in general: Writhing tests count abdominal constrictions after an irritant is injected.
Data set [7] has as its system rats. The experiment in a line: Hot plate model. The data set is classed as in vivo, male Sprague-Dawley rats. Particulars: JT07/JT09 20 mg/kg p.o.; morphine 10 mg/kg i.p.; %MPE, 53.0 °C, cut-off 30 s.
In data set [8] the test system is rats. The experiment in a line: Locomotor open field test. The conditions noted are these: JT09 20 mg/kg p.o.; morphine 10 mg/kg i.p.

“Also recorded” adds a separate entry of the source.

Turning to `COC(=O)[C@H]1[C@@H](OC(=O)c2ccccc2)C[C@@H]2CC[C@H]1N2C` [cocaine], the “number of cocaine infusions / active lever presses over 7 days” value in the data set on rats [1] (cocaine 50ug/50ul bolus after JT09, nose poke, F(6,42)=4.6, P<0.0012) is “number of cocaine infusions increased over the 7 days; also recorded: number of cocaine active lever presses increased over the 7 days; also recorded: expected increase in the number of lever presses over the seven-day period”. Further, the “cocaine infusions / active lever presses on days 6 and 7” value with rats [1] (cocaine after JT09, Dunnett post hoc, P<0.05) was “significantly more infusion on days 6 and 7; also recorded: significantly more active lever presses on days 6 and 7”.

Turning to D-Phe-D-Phe-D-Nle-D-Arg-NH2 [CR665], the “peripheral to central selectivity in analgesic models (in words)” value in data set [2] (i.v., background statement in abstract) was “high peripheral to central selectivity”. For the same compound, in data set [2] (peripheral versus central), the peripheral-selectivity was 548 fold. In addition, the “oral activity (in words)” value in data set [3] (background statement in abstract) was “inactive when administered orally”. Moreover, the “oral bioavailability (in words)” value in data set [3] is “does not have significant oral bioavailability”. In addition, in data set [4], the “efficacy in visceral and neuropathic pain (in words)” value is “has demonstrated efficacy in the treatment of visceral and neuropathic pain without the negative side-effects of centrally acting KOAs”.

As to `COC(=O)[C@@H]1C[C@H](OC(C)=O)C(=O)[C@H]2[C@@]1(C)CC[C@H]1C(=O)O[C@H](c3ccoc3)C[C@]21C` [Salvinorin A], in the data set on rats [5], the “depressant-like effects (in words)” value is given as “known depressant-like effects at high dose levels, such as dysphoria”.

Turning to `CN1CC[C@]23c4c5ccc(O)c4O[C@H]2[C@@H](O)C=C[C@H]3[C@H]1C5` [morphine], in the data set with rats [6], the “potency/efficacy versus morphine in writhing (peripheral pain)” value is on record as “comparable analgesic activity”. Further, the “analgesic activity in hot plate model” value in the data set on rats [7] was “potent analgesic”. Besides, the “sedation (in words)” value with rats [8] was “highly sedative”.

The values are drawn from article PMC6696947 (European journal of pharmacology, 2019).
